Data reported in ChEMBL document CHEMBL1152277, “Lead optimization of 4-acetylamino-2-(3,5-dimethylpyrazol-1-yl)-6-pyridylpyrimidines as A2A adenosine receptor antagonists for the treatment of Parkinson's disease” (J Med Chem, 2008).
Converted amounts (≈) assume the structure as drawn.

Key:
Rattus norvegicus [1] = assay: Inhibition of haloperidol-induced catalepsy in rat at 30 mg/kg, po after 2 hrs; assay type: functional
[2] = Plasma concentration in rat at 30 mg/kg, po after 2 hrs; assay type: ADME, organism-based; set-up: dose 30 mg/kg, route oral
Adenosine receptor A2a [3] = molecular target: Adenosine receptor A2a (Rattus norvegicus, UniProt P30543); assay: Displacement of [3H][…] from rat adenosine A2A receptor expressed in CHO cells; assay type: cell-based
[4] = Metabolic stability in human liver microsomes assessed as intrinsic clearance by LC-MS/MS analysis; assay type: ADME, Microsome
Rattus norvegicus [5] = species on record: Rattus norvegicus; assay: Inhibition of haloperidol-induced catalepsy in rat assessed as minimal effective dose; assay type: functional; conditions: read-out: MED
[6] = Drug concentration in rat brain at 30 mg/kg, po after 2 hrs; assay type: ADME, organism-based; set-up: dose 30 mg/kg, route oral; conditions: read-out: Drug uptake
Cytochrome P450 3A4 = Cytochrome P450 3A4 (Homo sapiens, UniProt P08684)
Description: Inhibition of CYP3A4 in human liver microsomes by LC-MS/MS analysis

[7] = Plasma concentration in rat at 10 mg/kg, po after 2 hrs; assay type: ADME, organism-based; set-up: dose 10 mg/kg, route oral
Adenosine receptor A2a [8] = molecular target: T1, Adenosine receptor A2a (Homo sapiens, UniProt P29274); assay: Displacement of [3H][…] from human adenosine A2A receptor expressed in HEK293 cells; assay type: cell-based
[9] = Aqueous solubility in phosphate-buffered saline at pH 7.4; assay type: physicochemical
[10] = Drug concentration in rat brain at 10 mg/kg, po after 2 hrs; assay type: ADME, organism-based; set-up: dose 10 mg/kg, route oral; conditions: read-out: Drug uptake
Adenosine receptor A1 = molecular target: T2, Adenosine receptor A1 (Homo sapiens, UniProt P30542); assay: Displacement of [3H]DPCPX from human adenosine A1 receptor expressed in HEK293 cells; assay type: cell-based
T2 sequence (P30542 whole entry): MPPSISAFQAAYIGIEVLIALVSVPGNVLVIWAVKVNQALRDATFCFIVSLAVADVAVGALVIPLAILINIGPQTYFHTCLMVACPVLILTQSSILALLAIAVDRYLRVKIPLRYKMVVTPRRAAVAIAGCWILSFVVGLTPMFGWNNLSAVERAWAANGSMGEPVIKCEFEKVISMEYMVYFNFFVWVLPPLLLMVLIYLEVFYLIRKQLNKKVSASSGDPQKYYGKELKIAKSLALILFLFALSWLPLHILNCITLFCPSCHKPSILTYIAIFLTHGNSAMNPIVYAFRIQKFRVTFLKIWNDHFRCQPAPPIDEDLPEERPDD

Adenosine receptor A2a [11] = molecular target: T1, Adenosine receptor A2a; assay: Antagonist activity at human adenosine A2A receptor expressed in CHO cells assessed as inhibition of CGS-21680-induced cAMP production; assay type: functional, cell-based
[12] = Metabolic stability in rat liver microsomes assessed as intrinsic clearance by LC-MS/MS analysis; assay type: ADME, Microsome
Homo sapiens = species on record: Homo sapiens; assay: Selectivity ratio of Ki for human adenosine A1 receptor to Ki for human adenosine A2A receptor

T1 sequence (P29274 whole entry): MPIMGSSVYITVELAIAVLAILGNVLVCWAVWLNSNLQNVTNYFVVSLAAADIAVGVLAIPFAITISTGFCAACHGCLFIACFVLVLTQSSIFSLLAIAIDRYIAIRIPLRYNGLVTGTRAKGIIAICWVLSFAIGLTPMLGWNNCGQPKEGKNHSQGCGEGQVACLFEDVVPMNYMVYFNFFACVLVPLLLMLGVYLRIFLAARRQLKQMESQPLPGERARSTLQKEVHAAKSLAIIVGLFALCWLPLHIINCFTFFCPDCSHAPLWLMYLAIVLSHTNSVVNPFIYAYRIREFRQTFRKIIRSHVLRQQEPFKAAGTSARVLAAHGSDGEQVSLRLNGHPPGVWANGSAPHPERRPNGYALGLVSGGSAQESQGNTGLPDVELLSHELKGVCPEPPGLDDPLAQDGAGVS
Chain of Adenosine receptor A2a (Rattus norvegicus, UniProt P30543) (P30543 whole entry): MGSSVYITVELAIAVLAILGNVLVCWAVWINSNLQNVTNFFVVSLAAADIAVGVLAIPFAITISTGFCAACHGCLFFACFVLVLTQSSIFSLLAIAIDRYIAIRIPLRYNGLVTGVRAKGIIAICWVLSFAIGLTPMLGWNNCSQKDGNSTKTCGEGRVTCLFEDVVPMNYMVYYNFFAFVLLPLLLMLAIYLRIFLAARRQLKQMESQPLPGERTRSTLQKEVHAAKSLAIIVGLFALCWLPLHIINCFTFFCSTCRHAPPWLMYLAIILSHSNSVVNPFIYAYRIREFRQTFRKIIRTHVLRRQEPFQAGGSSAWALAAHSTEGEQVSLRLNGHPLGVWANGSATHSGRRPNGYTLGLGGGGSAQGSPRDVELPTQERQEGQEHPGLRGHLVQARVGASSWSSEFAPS
Chain of Cytochrome P450 3A4 (P08684 whole entry): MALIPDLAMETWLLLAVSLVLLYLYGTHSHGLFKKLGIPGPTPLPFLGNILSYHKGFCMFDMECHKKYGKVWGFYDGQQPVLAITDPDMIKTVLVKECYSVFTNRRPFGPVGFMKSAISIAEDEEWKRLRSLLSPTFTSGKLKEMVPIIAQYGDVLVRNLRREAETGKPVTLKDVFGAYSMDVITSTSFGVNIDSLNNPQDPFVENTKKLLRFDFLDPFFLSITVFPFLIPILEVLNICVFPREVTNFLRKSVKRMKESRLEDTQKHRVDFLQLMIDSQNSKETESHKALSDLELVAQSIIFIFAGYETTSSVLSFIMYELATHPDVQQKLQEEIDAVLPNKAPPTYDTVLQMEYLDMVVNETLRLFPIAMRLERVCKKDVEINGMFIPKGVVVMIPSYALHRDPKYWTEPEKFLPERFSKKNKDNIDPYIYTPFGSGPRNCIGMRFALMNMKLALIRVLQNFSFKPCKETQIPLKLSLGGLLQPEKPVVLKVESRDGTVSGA

concentration at 2 h [2]: 180 ng/mL
Ki (Adenosine receptor A2a [3]): 10 nM
CLint scaled [4]: 43 mL/min/kg
concentration at 2 h [6]: 91 ng/g
IC50 (Cytochrome P450 3A4): > 20000 nM
concentration at 2 h [7]: 16 ng/mL
Ki (Adenosine receptor A2a [8]): 1.9 nM
solubility [9]: 200 µg/mL (≈ 491 µM)
concentration at 2 h [10]: 9 ng/g
Ki (Adenosine receptor A1): 470 nM
IC50 (Adenosine receptor A2a [11]): 22 nM
CLint scaled [12]: 230 mL/min/kg
Ratio Ki (Homo sapiens): 247
Structure (SMILES): CC(=O)Nc1cc(-c2cccc(N3CCC(O)CC3)n2)nc(-n2nc(C)cc2C)n1
inhibition in vivo at 30 mg/kg (Rattus norvegicus [1]): 90%
minimal effective dose (Rattus norvegicus [5]): 30 mg/kg
